The source of these data is ChEMBL document CHEMBL1128496, “Anti-AIDS (acquired immune deficiency syndrome) agents. 17. New brominated hexahydroxybiphenyl derivatives as potent anti-HIV agents” (J Med Chem, 1995).

Series [1] can be described thus: Anti-HIV activity was evaluated by measuring the growth inhibition of acutely infected H9 lymphocytes as EC50. The series is classed as functional. The following applies: Human immunodeficiency virus 1.
A short description of series [2]: Anti-HIV activity was evaluated by measuring the growth inhibition of acutely infected H9 lymphocytes as IC50. The series is classed as functional. As to conditions: Human immunodeficiency virus 1.
Series [3] can be described thus: Anti-HIV activity evaluated by measuring the growth inhibition of acutely infected H9 lymphocytes as therapeutic index. More on the design: species or system Human immunodeficiency virus 1. The following applies: for selectivity ratio: human immunodeficiency virus 1, H9 lymphocytes acutely infected with HIV-1, read-out: TI; for TI: Human immunodeficiency virus 1.

Series [4] relates to H9. The experiment in a line: Anti-HIV activity of compound was evaluated by measuring the growth inhibition of acutely infected H9 lymphocytes as IC50. The class given is functional, Homo sapiens.
The nature of series [5]: Effect against HIV-1 expression in a chronically infected human T cell line ACH-2. The class given is functional, Human immunodeficiency virus 1.
The nature of series [6]: Effect against HIV-1 expression in a chronically infected human T cell line ACH-2i n the presence of PMA(phorbol 12-myristate 13-acetate). The series is classed as functional, Human immunodeficiency virus 1.
The subject of series [7] is H9. The experiment in a line: Anti-HIV activity of compound was evaluated by measuring the growth inhibition of acutely infected H9 lymphocytes. The class given is functional, cell-based. As to conditions: Homo sapiens.
Series [8] is described as follows: Effect against HIV-1 chronically infected promonocytic cell line U1. The series is classed as functional, Human immunodeficiency virus 1.
Series [9] can be described thus: Effect against HIV-1 chronically infected promonocytic cell line U1 in the presence of PMA(phorbol 12-myristate 13-acetate). The class given is functional, Human immunodeficiency virus 1.
The nature of series [10]: Effect against HIV-1 expression in a chronically infected human T cell line ACH-2 in the presence of PMA(phorbol 12-myristate 13-acetate). The series is classed as functional, Human immunodeficiency virus 1.
Series [11] concerns ACH-2 cell line. The experiment in a line: Effect against HIV-1 chronically infected […] cell line ACH-2 cells. The series is classed as functional, Homo sapiens.
The subject of series [12] is ACH-2 cell line. Kind of series: Effect against HIV-1 chronically infected […] cell line ACH-2 cells in the presence of PMA(phorbol 12-myristate 13-acetate). The series is classed as functional, Homo sapiens.

≈ marks a conversion by molar mass, not a printed value. Where “and” joins values, the source holds several entries; their conditions need not be identical. Equal values may be shown once. Bounds are passed on as bounds.

As usually defined, the EC50 is the concentration needed to bring the measured effect to its halfway point. Lower therefore signals higher potency in that assay. In general, IC50 refers to the concentration at which inhibition is half-maximal. Read a high IC50 as a need for much substance. The compound `COc1c(Br)c(C(=O)O)c(-c2c3c(c(OC)c(Br)c2C(=O)NCCN2CCNCC2)OCO3)c2c1OCO2` returned a concentration giving a half-maximal response (EC50) in [1] of 30 µg/mL (≈ 45.5 µM). In [2], this compound showed a half-maximal inhibitory concentration (IC50) of more than 100 µg/mL. The selectivity ratio in series [3] is more than 3.3.

`COc1c(Br)c(C(=O)[O-])c(-c2c3c(c(OC)c(Br)c2C(=O)[O-])OCO3)c2c1OCO2.[Na+].[Na+]` registered an EC50 in series [1] of more than 100 µg/mL. The compound also showed an IC50 in [2] of more than 100 µg/mL. Also, the selectivity ratio in series [3] worked out at 1.

In series [1], `COc1c(Br)c(C(=O)O)c(-c2c3c(c(OC)c(Br)c2C(=O)O)OCO3)c2c1OCO2` had an EC50 of more than 100 µg/mL. Moreover, the concentration for half-maximal inhibition (IC50) in [2] was more than 100 µg/mL. Also, in [3], the TI came out at 1.

For `COc1c2c(c3c(c1Br)c(=O)oc(=O)c1c(Br)c(OC)c4c(c13)OCO4)OCO2`, the C50 with H9 [4] is more than 100 µg/mL.

Compound `COc1c(Br)c(C(=O)O)c(-c2c3c(c(OC)c(Br)c2C(=O)OCC[N+](C)(C)C)OCO3)c2c1OCO2.[Cl-]` registered an EC50 in series [1] of more than 100 µg/mL. This compound also registered an IC50 in series [2] of more than 100 µg/mL. Also, the selectivity ratio in series [3] was 1.

In the case of `CCOC(=O)c1c(Br)c(OC)c2c(c1-c1c3c(c(OC)c(Br)c1C(=O)[O-])OCO3)OCO2.[Na+]`, in [2], the IC50 is more than 100 µg/mL.

In the case of `COC(=O)c1c(Br)c(OC)c2c(c1-c1c3c(c(OC)c(Br)c1C(=O)OC)OCO3)OCO2`, the p24 in series [5] is 169 pg/mL and 141 pg/mL and 135 pg/mL and 142 pg/mL and 122 pg/mL and 123 pg/mL; in [6] it was 31590 pg/mL and 35635 pg/mL and 30426 pg/mL and 32768 pg/mL and 29173 pg/mL and 27699 pg/mL; in series [8] it was 15 pg/mL and 16 pg/mL and 14 pg/mL and 13 pg/mL and 17 pg/mL; in [9], 10131 pg/mL and 10598 pg/mL and 11482 pg/mL and 9850 pg/mL and 8320 pg/mL and 7590 pg/mL. In the series on H9 [7], this compound yielded an EC50 of 0.23 µg/mL (≈ 0.399 µM). Further, the selectivity ratio in series [3] was more than 480.

With `COc1c(OC(=O)c2ccccc2)c(OC(=O)c2ccccc2)c(Br)c(CO)c1-c1c(CO)c(Br)c(OC(=O)c2ccccc2)c(OC(=O)c2ccccc2)c1OC`, the EC50 in series [1] was more than 100 µg/mL. Besides, the IC50 in [2] was more than 100 µg/mL. In addition, the selectivity ratio in [3] is 1.

Regarding `COC(=O)c1cc(OC(=O)c2ccccc2)c(OC(=O)c2ccccc2)c(OC)c1-c1c(OC)c(OC(=O)c2ccccc2)c(OC(=O)c2ccccc2)c(Br)c1C(=O)OC`, in series [1], the EC50 was more than 100 µg/mL. Besides, the IC50 in [2] was more than 100 µg/mL. Moreover, the selectivity ratio in [3] was 1.

For `CCCCCCOC(=O)c1c(Br)c(OC)c2c(c1-c1c3c(c(OC)c(Br)c1C(=O)OCCCCCC)OCO3)OCO2`, the midpoint of the response in [1], the EC50, lay at 2 µg/mL (≈ 2.79 µM). The concentration for half-maximal inhibition (IC50) in series [2] is more than 100 µg/mL. Besides, in series [3], the selectivity ratio is more than 50.

Take `COC(=O)c1cc(OC)c2c(c1-c1c3c(c(OC)c(Br)c1C(=O)OC)OCO3)OCO2`: the p24 in series [5] was 148 pg ml-1 [middle of 6 runs]; in series [10], 23373 pg/mL; in series [6] it was 46208 pg/mL and 28634 pg/mL and 24832 pg/mL and 26957 pg/mL and 27699 pg/mL; in series [9], 10746 pg/mL and 13376 pg/mL and 8774 pg/mL and 7616 pg/mL and 7200 pg/mL and 8314 pg/mL.

In turn, `COC(=O)c1c(Br)c(OC(=O)c2ccccc2)c(OC(=O)c2ccccc2)c(OC)c1-c1c(OC)c(OC(=O)c2ccccc2)c(OC(=O)c2ccccc2)c(Br)c1C(=O)OC` registered an EC50 in series [1] of more than 100 µg/mL. In series [2], this compound returned an IC50 of more than 100 µg/mL. For the same compound, in series [3], the selectivity ratio amounted to 1.

In [1], `COc1c(Br)c(C(=O)O)c(-c2c3c(c(OC)c(Br)c2C(=O)O)OCO3)c2c1OCO2.OCCN1CCCC1.OCCN1CCCC1` registered an EC50 of 17 µg/mL. The IC50 in series [2] is more than 20 µg/mL. The TI in [3] is less than 1.2.

In series [1], `CCOC(=O)c1c(Br)c(OC)c2c(c1-c1c3c(c(OC)c(Br)c1C(=O)O)OCO3)OCO2` gave an EC50 of 60 µg/mL (≈ 104 µM). In addition, the IC50 in [2] is more than 100 µg/mL. For the same compound, the selectivity ratio in [3] is more than 1.7.

In the case of `COc1c(OC(=O)c2ccccc2)c(OC(=O)c2ccccc2)cc(CO)c1-c1c(CO)c(Br)c(OC(=O)c2ccccc2)c(OC(=O)c2ccccc2)c1OC`, the EC50 in series [1] is 100 µg/mL (≈ 120 µM). Moreover, the IC50 in series [2] was more than 100 µg/mL. Besides, in series [3], the selectivity ratio is more than 1.

Take `Br.COc1c(Br)c(C(=O)O)c(-c2c3c(c(OC)c(Br)c2C(=O)NCCN2CCCC2)OCO3)c2c1OCO2`: the EC50 in [1] was more than 100 µg/mL. The IC50 in series [2] is more than 100 µg/mL. Further, the selectivity ratio in [3] worked out at 1.

`COC(=O)c1cc(OC)c2c(c1-c1c(C(=O)OC)cc(OC)c3c1OCO3)OCO2` [BIFENDATE] showed a concentration giving a half-maximal response (EC50) in [1] of 5 µg/mL (≈ 12 µM). The same compound gave an IC50 in series [2] of more than 100 µg/mL. The selectivity ratio in series [3] was more than 20.

As for `Cc1cn([C@H]2C[C@H](N=[N+]=[N-])[C@@H](CO)O2)c(=O)[nH]c1=O` [ZIDOVUDINE], the p24 was 167 pg ml-1 [middle of 4 runs] with ACH-2 cell line [11]; 19814 pg/mL and 30758 pg/mL and 31808 pg/mL and 31360 pg/mL in the series with ACH-2 cell line [12]; 22 pg/mL and 13 pg/mL and 12 pg/mL and 18 pg/mL in series [8]; 9338 pg/mL and 9299 pg/mL and 8218 pg/mL and 8070 pg/mL in [9].
